The record followed here is patent US8357700B2, “2,3-disubstituted piperidine orexin receptor antagonists” (Merck Sharp & Dohme Corp., priority 2008, dated 2013).

For assay [1], the target named is T1, orexin-1 receptor (OX1R) (UniProt O43613).
T1 sequence (O43613 1-425): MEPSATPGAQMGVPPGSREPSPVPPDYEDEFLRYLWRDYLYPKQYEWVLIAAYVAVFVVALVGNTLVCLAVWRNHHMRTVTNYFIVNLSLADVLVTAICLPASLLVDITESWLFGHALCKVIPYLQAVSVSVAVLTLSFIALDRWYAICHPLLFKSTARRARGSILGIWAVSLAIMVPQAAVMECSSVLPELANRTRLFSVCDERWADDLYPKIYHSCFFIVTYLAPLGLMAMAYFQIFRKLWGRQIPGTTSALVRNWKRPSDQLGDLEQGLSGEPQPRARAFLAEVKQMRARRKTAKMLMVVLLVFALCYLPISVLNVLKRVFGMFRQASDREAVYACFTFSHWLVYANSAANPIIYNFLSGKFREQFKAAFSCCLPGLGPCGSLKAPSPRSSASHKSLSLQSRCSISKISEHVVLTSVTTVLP
Description: radioligand binding assay, membranes from CHO cells expressing OX1 receptor. The following applies: CHO cell membranes. As to the method: (§1) The utility of the compounds in accordance with the present invention as orexin receptor OX1R and/or OX2R antagonists may be readily determined without undue experimentation by methodology well known in the art, including the “FLIPR Ca^2+ Flux Assay” (Okumura et al., Biochem. Biophys. Res. Comm. 280:976-981, 2001). In a typical experiment the OX1 and OX2 receptor antagonistic activity of the compounds of the present invention was determined in accordance with the following experimental method. For intracellular calcium measurements, Chinese hamster ovary (CHO) cells expressing the rat OX1 receptor or the human OX2 receptor, are grown in Iscove's modified DMEM containing 2 mM L-glutamine, […], 1% hypoxanthine-thymidine supplement, 100 U/ml penicillin, 100 ug/ml streptomycin and 10% heat-inactivated fetal calf serum (FCS). The cells are seeded at 20,000 cells/well into Becton-Dickinson black 384-well clear bottom sterile plates coated with poly-D-lysine. All reagents were from GIBCO-Invitrogen Corp. The seeded plates are incubated overnight at 37° C. and 5% CO2. Ala-6,12 human orexin-A as the agonist is prepared as a 1 mM stock solution in 1% bovine serum albumin (BSA) and diluted in assay buffer (HBSS containing 20 mM HEPES, 0.1% BSA and 2.5 mM probenecid, pH7.4) for use in the assay at a final concentration of 70 pM. Test compounds are prepared as 10 mM stock solution in DMSO, then diluted in 384-well plates, first in DMSO, then assay buffer. On the day of the assay, cells are washed 3 times with 100 ul assay buffer and then incubated for 60 min (37° C., 5% CO2) in 60 ul assay buffer containing 1 uM Fluo-4AM ester, 0.02% pluronic acid, and 1% BSA. The dye loading solution is then aspirated and cells are washed 3 times with 100 ul assay buffer. 30 ul of that same buffer is left in each well. Within the Fluorescent Imaging Plate Reader (FLIPR, Molecular Devices), test compounds are added to the plate in a volume of 25 ul, incubated for 5 min and finally 25 ul of agonist is added. Fluorescence is measured for each well at 1 second intervals for 5 minutes and the height of each fluorescence peak is compared to the height of the fluorescence peak induced by 70 pM Ala-6,12 orexin-A with buffer in place of antagonist. For each antagonist, IC50 value (the concentration of compound needed to inhibit 50% of the agonist response) is determined. Alternatively, compound potency can be assessed by a radioligand binding assay (described in Bergman et. al. Bioorg. Med. Chem. Lett. 2008, 18, 1425-1430) in which the inhibition constant (Ki) is determined in membranes prepared from CHO cells expressing either the orexin-1 (OX1) or orexin-2 (OX2) receptor. The intrinsic orexin receptor antagonist activity of a compound which may be used in the present invention may be determined by these assays.

For assay [2], the target named is T2, orexin-2 receptor (OX2R) (Homo sapiens, UniProt O43614).
T2 construct: expressed in transfected cells; host or cells: CHO cells (membranes)
T2 sequence (O43614 1-444): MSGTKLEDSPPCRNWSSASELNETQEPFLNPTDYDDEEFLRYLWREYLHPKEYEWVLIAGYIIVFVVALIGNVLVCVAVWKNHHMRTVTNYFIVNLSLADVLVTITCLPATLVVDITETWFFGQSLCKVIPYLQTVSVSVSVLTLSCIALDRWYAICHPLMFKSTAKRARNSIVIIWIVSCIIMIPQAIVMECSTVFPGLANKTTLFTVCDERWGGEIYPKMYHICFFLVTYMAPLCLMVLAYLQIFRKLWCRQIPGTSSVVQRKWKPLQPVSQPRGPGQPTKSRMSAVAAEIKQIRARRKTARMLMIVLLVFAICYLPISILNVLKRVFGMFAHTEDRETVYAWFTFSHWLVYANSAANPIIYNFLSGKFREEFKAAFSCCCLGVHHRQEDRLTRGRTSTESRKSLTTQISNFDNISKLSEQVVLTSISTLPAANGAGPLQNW
The assay can be described thus: radioligand binding assay, membranes from CHO cells expressing OX2 receptor. As to conditions: CHO cell membranes. As to the method: as §1

A word on the Ki: it is the equilibrium dissociation constant of an inhibitor or competing ligand from its target. A lower Ki goes with tighter binding. As to `Cc1ccc(-n2nccn2)c(C(=O)N2CCC[C@@H](COc3ccc(Br)cn3)[C@@H]2C)c1` (stereo in doubt) [A-7, 5-bromo-2-({2-methyl-1-[5-methyl-2-(2H-1,2,3-triazol-2-yl)benzoyl]piperidin-3-yl}methoxy)pyridine], the Ki in assay [1] was 1.1 nM; in assay [2], 6.4 nM.

For the compound `Cc1ccc(-n2nccn2)c(C(=O)N2CCC[C@@H](COc3nccc4ccccc34)[C@@H]2C)c1` (stereo in doubt) [A-8, 1-({2-methyl-1-[5-methyl-2-(2H-1,2,3-triazol-2-yl)benzoyl]piperidin-3-yl}methoxy)isoquinoline], the Ki in assay [1] was 0.5 nM; in assay [2], 2.1 nM.

Consider `Cc1ccc(-n2nccn2)c(C(=O)N2CCC[C@@H](COc3cccc(Br)n3)[C@@H]2C)c1` (stereo in doubt) [A-9, 2-bromo-6-({2-methyl-1-[5-methyl-2-(2H-1,2,3-triazol-2-yl)benzoyl]piperidin-3-yl}methoxy)pyridine], for which the Ki was determined as 2.7 nM in assay [1] and 7.5 nM in assay [2].

Take `Cc1ccc(-n2nccn2)c(C(=O)N2CCC[C@@H](COc3ccnc4ccccc34)[C@@H]2C)c1` (stereo in doubt) [A-10, 4-({2-methyl-1-[5-methyl-2-(2H-1,2,3-triazol-2-yl)benzoyl]piperidin-3-yl}methoxy)quinoline]: the inhibition constant (Ki) in assay [1] was 0.6 nM; in assay [2] it was 2.6 nM.

On to `Cc1ccc(-n2nccn2)c(C(=O)N2CCC[C@@H](COc3ccccn3)[C@@H]2C)c1` [A-6], for which the Ki was found to be 1 nM in assay [1] and 39 nM in assay [2].
